Among the data in PubChem BioAssay (NCI) are GI50 and TGI values, retold here.

SMILES strings stand for the structures.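 Assay format: 96-well plates, 48-hour exposure. The concentration for 50% growth inhibition is given as GI50. TGI is the concentration that stops growth completely.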 A value given as a limit tells only on which side of the number the result lay.

Test systems include 786-0 renal; A498 renal; HL-60(TB) leukemia; MALME-3M melanoma; RPMI-8226 leukemia; SK-MEL-28 melanoma; SK-MEL-5 melanoma; SR leukemia; TK-10 renal; UO-31 renal.
What all share (experiment): NCI tumour cell line growth inhibition, 48 h

In the case of `C=C(C)[C@@H]1CC[C@]2(C(=O)OC)CC[C@]3(C)[C@H](CC[C@@H]4[C@@]5(C)CC/C(=N\OCCC(=NCCC#N)NOCCC#N)C(C)(C)[C@@H]5CC[C@]43C)[C@@H]12`, the GI50 in the assay on 786-0 renal is 6.42 µM; with A498 renal, 21.7 µM; in the assay with HL-60(TB) leukemia, 5.18 µM; in the assay on MALME-3M melanoma, 11.8 µM; with RPMI-8226 leukemia, 4.91 µM; in the assay with SK-MEL-28 melanoma, 17.1 µM. The GI50 in the assay on SK-MEL-5 melanoma was 3.02 µM; in the assay on SR leukemia, 2.87 µM; in the assay on TK-10 renal, 13.8 µM; in the assay with UO-31 renal it was 15.6 µM. Further, the TGI in the assay with 786-0 renal is 16.4 µM; in the assay on A498 renal, over 50 µM; with HL-60(TB) leukemia, 24.9 µM; with MALME-3M melanoma, over 50 µM; in the assay on RPMI-8226 leukemia, 42.7 µM; with SK-MEL-28 melanoma, over 50 µM. The TGI was 10 µM in the assay with SK-MEL-5 melanoma, 16.5 µM in the assay with SR leukemia, over 50 µM in the assay on TK-10 renal and over 50 µM with UO-31 renal.

With `CC/C(=C\c1ccc(N(C)C)cc1)c1ccncc1`, the GI50 in the assay with 786-0 renal was 6.31 µM; in the assay with A498 renal, 4.35 µM; in the assay with HL-60(TB) leukemia, 4.06 µM; in the assay with MALME-3M melanoma, 4.52 µM; in the assay with RPMI-8226 leukemia it was 5.13 µM; with SK-MEL-28 melanoma it was over 100 µM. Further, the GI50 in the assay with SK-MEL-5 melanoma is 3.43 µM; in the assay on SR leukemia it was 3.24 µM; in the assay on TK-10 renal, 12.9 µM; with UO-31 renal, 6.57 µM. Further, the TGI in the assay on 786-0 renal was 46.4 µM; with A498 renal, over 100 µM; in the assay on HL-60(TB) leukemia, 29.3 µM; in the assay on MALME-3M melanoma, over 100 µM; with RPMI-8226 leukemia, 55.2 µM; with SK-MEL-28 melanoma it was over 100 µM. Also, the TGI in the assay on SK-MEL-5 melanoma is 16.4 µM; in the assay on SR leukemia, 30.1 µM; in the assay on TK-10 renal, over 100 µM; in the assay with UO-31 renal, over 100 µM.

With `COc1cnc2c(c1)C(=O)c1c-2n(CCCN2CCNCC2)c(=O)c2cc(F)ccc12`, the GI50 in the assay with 786-0 renal was 0.127 µM; in the assay with A498 renal, 0.352 µM; in the assay with HL-60(TB) leukemia, 0.0927 µM; in the assay on MALME-3M melanoma, 1.13 µM; in the assay with RPMI-8226 leukemia it was 0.0505 µM; with SK-MEL-28 melanoma it was 1.52 µM. Further, the GI50 in the assay on SK-MEL-5 melanoma was 0.217 µM; in the assay on SR leukemia, 0.05 µM; with TK-10 renal, 0.267 µM; with UO-31 renal, 0.133 µM. Also, the TGI came out at 0.511 µM with 786-0 renal; 1.9 µM in the assay on A498 renal; 0.682 µM with HL-60(TB) leukemia; 2.56 µM in the assay on MALME-3M melanoma; 0.458 µM in the assay with RPMI-8226 leukemia; 3.03 µM in the assay with SK-MEL-28 melanoma. Further, the TGI is 1.65 µM in the assay on SK-MEL-5 melanoma, 0.863 µM with SR leukemia, 1.43 µM with TK-10 renal and 1.12 µM with UO-31 renal.

In the case of `N/C(=N\O)c1cn(C2OC(CO)C(O)C2O)c2ncnc(N)c12` (stereo not given), the GI50 in the assay on 786-0 renal was 0.374 µM; in the assay with A498 renal, 0.14 µM; in the assay with HL-60(TB) leukemia, 0.117 µM; in the assay with MALME-3M melanoma, 0.0578 µM; in the assay on RPMI-8226 leukemia, 0.162 µM; in the assay with SK-MEL-28 melanoma it was 0.127 µM. The GI50 is 0.183 µM in the assay on SK-MEL-5 melanoma, 0.0876 µM with SR leukemia, 0.204 µM with TK-10 renal and 0.229 µM in the assay with UO-31 renal. Further, the TGI was over 100 µM in the assay with 786-0 renal; 0.555 µM with A498 renal; 0.858 µM in the assay on HL-60(TB) leukemia; 0.243 µM with MALME-3M melanoma; 0.625 µM in the assay with RPMI-8226 leukemia; 0.382 µM in the assay on SK-MEL-28 melanoma. For the same molecule, the TGI in the assay with SK-MEL-5 melanoma is 0.356 µM; in the assay on SR leukemia it was 14.8 µM; with TK-10 renal, 7.49 µM; in the assay with UO-31 renal it was 13.4 µM.

`CC(C)c1c(C(=O)Nc2ccccc2)c(-c2ccccc2)c(-c2ccc(F)cc2)n1CC[C@@H](O)C[C@@H](O)CC(=O)O`: the GI50 with 786-0 renal is 22.3 µM; with A498 renal, 0.516 µM; in the assay with HL-60(TB) leukemia, 20.9 µM; in the assay on MALME-3M melanoma, 52.8 µM; in the assay with RPMI-8226 leukemia, 16.6 µM; with SK-MEL-28 melanoma it was 18.2 µM. In addition, the GI50 was 9.95 µM in the assay with SK-MEL-5 melanoma, 4.35 µM in the assay on SR leukemia, 45.5 µM in the assay with TK-10 renal and 30.2 µM in the assay with UO-31 renal. Besides, the TGI is over 81.2 µM with 786-0 renal; 4.52 µM in the assay on A498 renal; over 96.7 µM in the assay with HL-60(TB) leukemia; over 100 µM in the assay with MALME-3M melanoma; over 100 µM in the assay on RPMI-8226 leukemia; over 100 µM in the assay with SK-MEL-28 melanoma. The TGI with SK-MEL-5 melanoma is 25.4 µM; with SR leukemia, 39 µM; with TK-10 renal it was over 100 µM; in the assay on UO-31 renal, over 100 µM.

For the molecule `N#CSc1c[nH]c2cccc(/C=C/C(=O)/C=C(O)/C=C/c3cccc4[nH]cc(SC#N)c34)c12`, the GI50 was 0.684 µM in the assay on 786-0 renal; 1.03 µM with A498 renal; 0.437 µM with HL-60(TB) leukemia; 0.52 µM with MALME-3M melanoma; 0.128 µM with RPMI-8226 leukemia; 0.495 µM in the assay on SK-MEL-28 melanoma. The GI50 in the assay with SK-MEL-5 melanoma is 0.467 µM; with SR leukemia, 0.129 µM; in the assay with TK-10 renal, 0.756 µM; in the assay on UO-31 renal it was 0.197 µM. For the same molecule, the TGI in the assay with 786-0 renal was found to be 2.14 µM; with A498 renal, 4.27 µM; with HL-60(TB) leukemia, 1.75 µM; in the assay on MALME-3M melanoma, 1.07 µM; in the assay with RPMI-8226 leukemia, 0.9 µM; in the assay with SK-MEL-28 melanoma it was 1.15 µM. Besides, the TGI with SK-MEL-5 melanoma is 0.982 µM; in the assay with SR leukemia, over 33.3 µM; in the assay with TK-10 renal, 2.51 µM; in the assay on UO-31 renal, 0.652 µM.

Consider `C#CC[C@]12CC(=O)CC[C@H]1CC1(C2)OCCO1`, for which the TGI in the assay with 786-0 renal, with A498 renal, in the assay with HL-60(TB) leukemia, in the assay with MALME-3M melanoma, in the assay with RPMI-8226 leukemia and with SK-MEL-28 melanoma was over 100 µM in each case. The TGI in the assay on SK-MEL-5 melanoma, with SR leukemia, with TK-10 renal and in the assay with UO-31 renal was over 100 µM throughout.

Take `COc1cc(CC2c3cc(OC)c(OC)cc3CCN2C)c(C(=O)O)cc1OC` (stereo not given): the TGI in the assay with 786-0 renal, in the assay on A498 renal, in the assay on HL-60(TB) leukemia, in the assay with MALME-3M melanoma, in the assay with RPMI-8226 leukemia and in the assay on SK-MEL-28 melanoma was over 100 µM in each case. The TGI in the assay on SK-MEL-5 melanoma, with SR leukemia, in the assay on TK-10 renal and with UO-31 renal was over 100 µM throughout.
